Paper PMC8065987, “Identification of Anti-Inflammatory and Anti-Proliferative Neolignanamides from Warburgia ugandensis Employing Multi-Target Affinity Ultrafiltration and LC-MS” (Pharmaceuticals, 2021)
Like-named read-outs stand apart in the source and are kept apart here.

Tests used:
5-LOX = biological target: T1, 5-LOX (Homo sapiens, UniProt P09917); assay: Affinity ultrafiltration HPLC-MS/MS (AUF-HPLC-MS/MS) of WE-P with 5-LOX; details: relative binding strength = Aactive/Asample × 100%; peak in WE-P; n = 3
T1 construct: purchased Cayman Chemical Co., Ltd. (Ann Arbor, MI, USA)
T1 sequence (P09917 1-674): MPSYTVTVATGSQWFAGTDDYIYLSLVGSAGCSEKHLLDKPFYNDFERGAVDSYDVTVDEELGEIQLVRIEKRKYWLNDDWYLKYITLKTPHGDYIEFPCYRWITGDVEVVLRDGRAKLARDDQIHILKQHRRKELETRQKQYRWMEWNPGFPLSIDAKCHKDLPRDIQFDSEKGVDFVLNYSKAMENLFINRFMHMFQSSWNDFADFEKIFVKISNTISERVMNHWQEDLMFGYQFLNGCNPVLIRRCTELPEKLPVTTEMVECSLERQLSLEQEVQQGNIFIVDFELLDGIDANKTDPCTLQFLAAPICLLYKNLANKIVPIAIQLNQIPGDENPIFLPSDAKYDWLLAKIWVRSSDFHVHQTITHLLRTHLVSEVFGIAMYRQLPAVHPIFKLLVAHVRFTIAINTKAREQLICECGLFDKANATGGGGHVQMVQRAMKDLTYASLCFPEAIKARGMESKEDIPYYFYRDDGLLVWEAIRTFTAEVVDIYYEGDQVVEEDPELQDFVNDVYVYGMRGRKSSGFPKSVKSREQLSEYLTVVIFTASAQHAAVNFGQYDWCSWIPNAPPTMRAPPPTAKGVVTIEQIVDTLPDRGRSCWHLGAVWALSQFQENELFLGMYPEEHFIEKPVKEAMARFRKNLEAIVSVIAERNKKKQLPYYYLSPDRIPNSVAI
Method: (§1) The relative binding strength (RBS) was employed to compare the variation of the correlated peak areas in the AUF-HPLC-UV chromatograms before and after incubation with enzymes to evaluate the affinity binding abilities between potential ligands and target enzymes. The RBS formula is expressed as: RBS = (Aactive/Asample) × 100%, where the Aactive represents the peak areas obtained from the WE-P samples incubated with COX-2, 5-LOX, Top I or Top II, respectively; the Asample represents the peak areas obtained from WE-P samples without ultrafiltration. […] Namely, the special binding capacities of peak 2 with COX-2, 5-LOX, Top I and Top II might be stronger than that of peak 1. […] Therefore, it could be preliminarily estimated that peak 1 and peak 2 were the main bioactive components in WE-P which were closely related to its anti-inflammatory and anti-proliferative activities. These compounds were then identified based on their MS/MS data, related references and NMR or UPLC-QTOF-MS/MS data of isolated compounds, and the results are shown in Table 2.
(§2) Affinity ultrafiltration screening was slightly modified and carried out according to some previous studies. Firstly, approximately 100 µL of WE-P (10.0 mg/mL) were incubated with 10 µL of enzymes (2 U, COX-2, 5-LOX, Top I or Top II), and 90 µL of Tris-HCl (pH = 7.8) at 37 °C in the darkness for 1 h. […]

Top I = assay: Affinity ultrafiltration HPLC-MS/MS (AUF-HPLC-MS/MS) of WE-P with Top I; details: relative binding strength = Aactive/Asample × 100%; peak in WE-P; n = 3
Method: as §1, §2

Top II = assay: Affinity ultrafiltration HPLC-MS/MS (AUF-HPLC-MS/MS) of WE-P with Top II; details: relative binding strength = Aactive/Asample × 100%; peak in WE-P; n = 3
Method: as §1, §2

Hela cells [1] = assay: Cell proliferative assay (SRB), Hela; assay type: cell-based; details: Homo sapiens, 48 h, read-out: Anti-proliferative IC50, Hela cells
Method: (§3) Human non-small cell lung adenocarcinoma cell line (A549) and human cervical cancer cell line (Hela) were obtained from the American Type Culture Collection (ATCC, Manassas, VA, USA) and maintained in Ham’s F-12K medium supplemented with 10% fetal bovine serum (FBS), 1% penicillin, and 1% streptomycin in a cell incubator under humidified conditions with 5% CO2 at 37 °C, and the procedures were slightly modified from previous method. To evaluate the proliferative activity of A549 cell line and Hela cell line, the SRB assay was carried out according to the manufacturer’s instructions (Beyotime, Shanghai, China). Briefly, these two cell lines were seeded into 96-well plates at a density of 1.0 × 10^4 per well. After 24 h incubation, the tested samples were dissolved in the DMSO and sequentially diluted with cell culture medium and added to each well at the specified concentrations. Cell viability was assessed by SRB 48 h later. Absorbances was measured by a Tecan microplate reader (Tecan Infinite M200 Pro, Tecan Group Ltd., Männedorf, Switzerland) at a wavelength of 540 nm. The experiments were performed in triplicate. The anti-proliferative activities were expressed as IC50. […] The data were expressed as mean ± standard deviation (SD) of three replicates.

A549 cells [2] = assay: Cell proliferative assay (SRB), A549; assay type: cell-based; details: Homo sapiens, 48 h, read-out: Anti-proliferative IC50, A549 cells
Method: as §3

COX-2 [3] = biological target: T2, COX-2 (Homo sapiens, UniProt P35354); assay: In vitro COX-2 inhibitory assay (COX-2 (human) inhibitor screening assay kit, fluorescence); assay type: biochemical; set-up: purchased Beyotime Biotechnology (Shanghai, China) S0168; details: triplicate; read-out: COX-2 inhibition IC50 (isolated compounds)
T2 sequence (P35354 18-604): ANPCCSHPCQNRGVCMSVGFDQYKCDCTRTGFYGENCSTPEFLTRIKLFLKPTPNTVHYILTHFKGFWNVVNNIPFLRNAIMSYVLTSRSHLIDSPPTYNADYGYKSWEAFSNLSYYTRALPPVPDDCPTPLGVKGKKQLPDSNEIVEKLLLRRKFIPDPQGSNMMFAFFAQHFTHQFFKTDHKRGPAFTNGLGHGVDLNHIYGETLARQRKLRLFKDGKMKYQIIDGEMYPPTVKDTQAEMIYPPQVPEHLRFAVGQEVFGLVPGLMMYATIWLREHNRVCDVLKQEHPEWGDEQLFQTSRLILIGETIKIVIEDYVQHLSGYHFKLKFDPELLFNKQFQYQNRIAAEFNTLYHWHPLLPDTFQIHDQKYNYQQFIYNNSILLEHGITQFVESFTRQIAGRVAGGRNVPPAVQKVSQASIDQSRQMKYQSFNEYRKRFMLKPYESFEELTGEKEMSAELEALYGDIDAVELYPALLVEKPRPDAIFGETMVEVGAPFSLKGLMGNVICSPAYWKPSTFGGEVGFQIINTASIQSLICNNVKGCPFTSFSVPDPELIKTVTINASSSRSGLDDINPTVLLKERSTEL
Method: Thirdly, 10 µL COX-2 probe was added into each well. […] The experiments were performed in triplicate.

COX-2 [4] = biological target: T2, COX-2; assay: Affinity ultrafiltration HPLC-MS/MS (AUF-HPLC-MS/MS) of WE-P with COX-2; set-up: purchased Wuhan Antgene Biotechnology Co., Ltd. (Wuhan, China); details: relative binding strength = Aactive/Asample × 100%; peak in WE-P; n = 3
Method: as §1, §2

[5] = system: human peripheral blood mononuclear cells (PBMCs) stimulated by lipopolysaccharide (LPS); set-up: method as in PMID 32877711; details: 100 µM; cited from earlier work
RAW 264.7 cell line = system: RAW 264.7 cell line; set-up: method as in doi:10.1016/j.phytol.2019.01.020; details: LPS-stimulated RAW 264.7; read-out: Inhibition of NO production IC50; cited from earlier work
Hela cells [6] = system: Hela cells; set-up: method as in PMID 33301798; details: previous study; read-out: Anti-proliferative IC50, Hela cells; cited from earlier work
[7] = system: human mammary adenocarcinoma (MCF-7) cells; set-up: method as in PMID 33301798; details: previous study; read-out: Anti-proliferative IC50, MCF-7 cells; cited from earlier work
A549 cells [8] = system: A549 cells; set-up: method as in PMID 33301798; details: previous study; read-out: Anti-proliferative IC50, A549 cells; cited from earlier work
Hela cell line = system: Hela cell line; set-up: method as in PMID 32212861; details: previous study; cited from earlier work
[9] = system: LNCaP human prostate cancer cell; set-up: method as in PMID 11858758; details: previous study; cited from earlier work
MCF-7 = system: MCF-7; set-up: method as in PMID 27504537; details: 72 h; read-out: GI50 (the 50% growth inhibition in 72 h), MCF-7; cited from earlier work
[10] = system: human prostate cancer (PC-3) cells; set-up: method as in PMID 27504537; details: 72 h; read-out: GI50 (the 50% growth inhibition in 72 h), PC-3; cited from earlier work
[11] = system: human colorectal adenocarcinoma (Caco-2) cells; set-up: method as in PMID 27504537; details: inactive or poorly active; cited from earlier work

SMILES | UF-RBS (%) 5-LOX (5-LOX) | UF-RBS (%) Top I (Top I) | UF-RBS (%) Top II (Top II) | IC50 (Hela cells [1]) | IC50 (A549 cells [2]) | IC50 (COX-2 [3]) | UF-RBS (%) COX-2 (COX-2 [4]) | Release of GM-CSF [5] | Release of IL-1β [5] | Release of IL-2 [5] | Release of TNF-α [5] | IC50 (RAW 264.7 cell line) | IC50 (Hela cells [6]) | IC50 [7] | IC50 (A549 cells [8]) | Anti-proliferative activity on Hela cell line (Hela cell line) | Cytotoxicity in cultured LNCaP cells [9] | GI50 (MCF-7) | GI50 [10] | GI50 [11]
COc1cc(C2Oc3c(OC)cc(/C=C\C(=O)NCCc4ccc(O)cc4)cc3C2C(=O)NCCc2ccc(O)cc2)ccc1O (stereo not drawn) [Compound 1, N-cis-grossamide] | 16.74 ± 0.65% | 34.25 ± 2.81% | 24.53 ± 1.54% | 84.4 ± 1.79 µM | > 100 µM | 4.41 ± 0.249 µM | 20.15 ± 0.12% |  |  |  |  |  |  |  |  |  |  |  |  | 
COc1cc(C2Oc3c(OC)cc(/C=C/C(=O)NCCc4ccc(O)cc4)cc3C2C(=O)NCCc2ccc(O)cc2)ccc1O (stereo not drawn) [Compound 2, N-trans-grossamide] | 42.00 ± 1.26% | 76.2 ± 5.20% | 58.57 ± 3.82% | 72.8 ± 0.839 µM | > 100 µM | 1.95 ± 0.381 µM | 27.39 ± 1.58% | 1.61 % of LPS control | 2.14 % of LPS control | 11.61 % of LPS control | 0.06 % of LPS control | 52.5 ± 6.1 µM | 20.1 ± 3.05 µM | 11.4 ± 1.62 µM | 13.5 ± 3.66 µM | moderate anti-proliferative activity | moderate cytotoxicity | 24 µM | 21 µM | > 100 µM
